Earlier results as cited in patent publication US20230363334A1, “METHOD FOR INCREASING CONTENT AND GENE EXPRESSION OF AROMATIC SUBSTANCE IN FRUITS AND VEGETABLES BY USING HYDROGEN-RICH WATER” (NANJING AGRICULTURAL UNIVERSITY, priority 2020, published 2023).

Conditions: one atmosphere and 20° C.

In the case of `[HH]` [hydrogen], the “Maximum concentration of hydrogen dissolved in water (saturation concentration)” value is given as 1.6 ppm and the “Solubility of hydrogen (volumes of hydrogen per volume of water)” value is given as 1.83%.
